Test results from patent US8058243B2, “Method for treating a brain cancer with ifenprodil” (HSC Research and Development Limited Partnership, priority 2006, dated 2011).
Counter-ions that a name gives are not always drawn. Like-named read-outs stand apart in the source and are kept apart here.

Test system: murine neural precursor cells (neurosphere cultures)
Assay: HTS of LOPAC library against secondary neurosphere cultures, MTT proliferation assay at 3 μM, day 7 (z score, P value)
Assay type: cell-based, mouse
[1] = yes/no: significantly inhibited neurosphere proliferation in the primary screen
[2] = LOPAC screen, neurosphere MTT proliferation, 3 μM, day 7
[3] = yes/no: significantly inhibited neurosphere proliferation (P<0.01) in primary screen
[4] = LOPAC library screen, 3 μM, MTT, secondary neurosphere cultures, day 7
[5] = primary LOPAC screen, 3 μM, MTT, neurosphere proliferation
[6] = LOPAC primary screen, neurosphere MTT proliferation, 3 μM, day 7
[7] = yes/no: significantly inhibited neurosphere proliferation (P<0.01) in the primary screen
[8] = LOPAC library screen at 3 μM, secondary neurosphere cultures, MTT
[9] = yes = significantly inhibited neurosphere proliferation (P<0.01) in the primary screen
[10] = yes/no: significantly inhibited neurosphere proliferation in primary screen
[11] = LOPAC library screen, 3 μM, MTT, neurosphere cultures

In the case of `NC(CCCP(=O)(O)O)C(=O)O` (racemic) [(±)-2-Amino-5-phosphonopentanoic acid], the Z score (168 h, 3 µM) is reported as −1.045 and the Activity [1] is reported as “no”.
Dihydroergocristine methanesulfonate was tested, and the “Z Score” value was −0.773, the Z score [2] was −0.773 and the Activity [3] was “no”.
`CCCC1O[C@@H]2C[C@H]3[C@@H]4CCC5=CC(=O)C=C[C@]5(C)[C@H]4[C@@H](O)C[C@]3(C)[C@]2(C(=O)CO)O1` (stereo partly drawn) [Budesonide] was tested, and the “Z Score” value [4] was −1.994 and the Z score [2] was −1.994.
With `Cl.NCCCCNS(=O)(=O)c1ccc2c(Cl)cccc2c1` [N-(4-Aminobutyl)-5-chloro-2-naphthalenesulfonamide hydrochloride] the “Z Score” value (168 h, 3 µM) was −0.9229.
For `CC(=O)N[C@@H](Cc1c[nH]c2ccccc12)C(=O)OCc1cc(C(F)(F)F)cc(C(F)(F)F)c1` [L-732,138], the “Z Score” value was 0.5027, the Z score [5] was 0.503 and the Activity [1] was “no”.
With `Cc1nnc(SCC2=C(C(=O)O)N3C(=O)[C@@H](NC(=O)Cn4cnnn4)[C@H]3SC2)s1` [Cefazolin sodium] the “Z Score” value [4] was −2.58, the Z score [6] was −2.580 and the Activity [7] was “yes”.
For `C[C@H](Cc1ccc(OCC(=O)[O-])cc1)NC[C@H](O)c1cccc(Cl)c1.[Na+]` [BRL 37344 sodium], the “Z Score” value was −1.725, the Z score [2] was −1.725 and the Activity [3] was “no”.
For `N#CC(C#N)=Cc1ccc([N+](=O)[O-])c(O)c1` [Tyrphostin AG 126], the “Z Score” value [8] was −0.4102, the Z score [5] was −0.410 and the Activity [1] was “no”.
In the case of `COc1ccccc1N1CCN(CCN(C(=O)c2ccc(I)cc2)c2ccccn2)CC1.Cl` [p-MPPI hydrochloride], the “Z Score” value is reported as 0.2606, the Z score [6] is reported as 0.261 and the Activity [9] is reported as “no”.
`CC(C)CC(NC(=O)C1OC1C(=O)O)C(=O)NCCCCNC(=N)N` (stereo not drawn) [E-64] was tested, and the “Z Score” value was −1.709, the Z score [2] was −1.709 and the Activity [3] was “no”.
With `Cc1nc(N=Nc2ccc(C(=O)O)cc2)c(COP(=O)(O)O)c(C=O)c1O` [MRS 2159] the “Z Score” value was −0.2666, the Z score [6] was −0.267 and the Activity [9] was “no”.
With `Cl.NCCNC(=O)c1ccc(Cl)cc1` [Ro 16-6491 hydrochloride] the “Z Score” value was −2.181, the Z score [6] was −2.181 and the Activity [10] was “no”.
In the case of `COC(=O)[C@H]1[C@H]2C[C@@H]3c4[nH]c5cc(OC)ccc5c4CCN3C[C@H]2C[C@@H](OC(=O)c2cc(OC)c(OC)c(OC)c2)[C@@H]1OC` [Reserpine], the “Z Score” value [8] is reported as −1.023, the Z score [6] is reported as −1.023 and the Activity [9] is reported as “no”.
`O=C1NC(=O)C(c2ccccc2)(c2ccccc2)N1` [5,5-Diphenylhydantoin] was tested, and the “Z Score” value [11] was 1.383, the Z score [2] was 1.383 and the Activity [3] was “no”.
For `NC1CCN(O)C1=O` (racemic) [(±)-HA-966], the Activity was “no” and the Z score [5] was 1.157.
In the case of `N[C@@H](Cn1cc(I)c(=O)[nH]c1=O)C(=O)O` [S-5-Iodowillardiine], the “Z Score” value is reported as −0.3551, the Z score [5] is reported as −0.355 and the Activity [1] is reported as “no”.
For `Cl.Oc1cc2c(cc1O)C(c1ccccc1)CNCC2` (stereo not drawn) [(B1)-SKF-38393 hydrochloride], the “Z Score” value was 1.28.
`C[C@]12CCC(=O)C=C1CC[C@@H]1[C@@H]2[C@@H](O)C[C@@]2(C)[C@H]1CC[C@]2(O)C(=O)COC(=O)CCC(=O)[O-].[Na+]` [Hydrocortisone 21-hemisuccinate sodium] was tested, and the “Z Score” value [11] was −0.04033, the Z score [6] was −0.040 and the Activity [3] was “no”.
In the case of `Clc1cnc(Oc2ccc(Oc3ncc(Cl)cc3Cl)cc2)c(Cl)c1` [TCPOBOP], the “Z Score” value [4] is reported as −2.008, the Z score [6] is reported as −2.008 and the Activity [9] is reported as “no”.
In the case of `COc1ccccc1N1CCN(CCCCN2C(=O)c3ccccc3C2=O)CC1` [NAN-190 hydrobromide], the “Z Score” value [8] is reported as −0.6186, the Z score [6] is reported as −0.619 and the Activity [9] is reported as “no”.
`Cl.O[Si](CCCN1CCCCC1)(c1ccc(F)cc1)C1CCCCC1` (stereo not drawn) was tested, and the “Z Score” value [4] was −1.492, the Z score [6] was −1.492 and the Activity [3] was “no”.
For `CC(C)NP(=O)(NC(C)C)OP(=O)(NC(C)C)NC(C)C` [Tetraisopropyl pyrophosphoramide], the “Z Score” value was −1.114, the Z score [5] was −1.114 and the Activity [1] was “no”.
For `CCCCCCCCCC(=O)NC(CN1CCOCC1)[C@H](O)c1ccccc1.Cl` (mixture of isomers), the Activity was “no” and the Z score [6] was −1.109.
`CCCN1C[C@H](CSC)C[C@@H]2c3cccc4[nH]cc(c34)C[C@H]21` [Pergolide methanesulfonate] was tested, and the “Z Score” value [4] was −2.657, the Z score [6] was −2.657 and the Activity [7] was “yes”.
For `CN(C)CCCO[C@@H]1[C@H]2OC(C)(C)O[C@H]2O[C@@H]1[C@H](O)CO` [Amiprilose hydrochloride], the “Z Score” value (168 h, 3 µM) was −0.7783, the Z score (168 h, 3 µM) was −0.778 and the Activity [1] was “no”.
In the case of L(−)-Norepinephrine bitartrate, the “Z Score” value [4] is reported as −1.418, the Z score [5] is reported as −1.418 and the Activity [1] is reported as “no”.
S-(−)-Eticlopride hydrochloride was tested, and the “Z Score” value was −5.158.
In the case of `O=c1[nH]c(=O)n([C@H]2C[C@H](O)[C@@H](CO)O2)cc1Br` [5-Bromo-2′-deoxyuridine], the Z score [2] is reported as 2.580 and the Activity [3] is reported as “no”.
`OC[C@H]1NC[C@@H](O)[C@@H]1O` [1,4-Dideoxy-1,4-imino-D-arabinitol] was tested, and the “Z Score” value (168 h, 3 µM) was −0.008617, the Z score (168 h, 3 µM) was −0.009 and the Activity [3] was “no”.
`CCCN1CCO[C@@H]2c3cc(O)ccc3OC[C@H]21.Cl` [S(+)-PD 128,907 hydrochloride] was tested, and the “Z Score” value was −1.174, the Z score [6] was −1.174 and the Activity [10] was “no”.
With `COc1ccc2c(c1)c(CC(=O)O)c(C)n2C(=O)c1ccccc1` [1-benzoyl-5-methoxy-2-methylindole-3-acetic acid] the “Z Score” value [8] was −0.955, the Z score [5] was −0.955 and the Activity [1] was “no”.
In the case of `COc1cc2c(cc1C(F)(F)F)N(C(=O)Nc1cc(F)cc(-c3cccnc3)c1)CC2` [SB 228357], the “Z Score” value is reported as 0.03426, the Z score [6] is reported as 0.034 and the Activity [3] is reported as “no”.
In the case of `CCN(CC)C(C)C(=O)N1c2ccccc2Sc2ccccc21.Cl` (stereo not drawn) [10-(alpha-Diethylaminopropionyl)-phenothiazine hydrochloride], the “Z Score” value is reported as −1.545.
In the case of `C=CCc1ccccc1OCC(O)CNC1(C)CCC(C(C)(C)NC(=O)CBr)CC1` (stereo not drawn) [Bromoacetyl alprenolol menthane], the “Z Score” value is reported as 1.442, the Z score [2] is reported as 1.442 and the Activity [3] is reported as “no”.
In the case of `N#C/C(=C\c1ccc(O)c(O)c1)C(=O)NCCCc1ccccc1` [Tyrphostin AG 555], the “Z Score” value [8] is reported as −0.6812, the Z score [5] is reported as −0.681 and the Activity [1] is reported as “no”.
In the case of `CCn1cc(C(=O)O)c(=O)c2cc(F)c(N3CCNC(C)C3)c(F)c21` (stereo not drawn) [Lomefloxacin hydrochloride], the Activity is reported as “no”, the “Z Score” value [11] is reported as 0.1374 and the Z score [6] is reported as 0.137.
In the case of `Clc1ccccc1C(c1ccccc1)(c1ccccc1)n1ccnc1` [Clotrimazole], the “Z Score” value [8] is reported as −0.7158, the Z score [2] is reported as −0.716 and the Activity [3] is reported as “no”.
For `CC(N)C(=O)OC(C)(C)Cc1ccc(Cl)cc1` (stereo not drawn) [Alaproclate hydrochloride], the “Z Score” value (168 h, 3 µM) was −0.1725, the Z score (168 h, 3 µM) was −0.172 and the Activity [1] was “no”.
With LY-367,265 the “Z Score” value was −0.407, the Z score [6] was −0.407 and the Activity [3] was “no”.
With `CC(=O)OC(C)C[N+](C)(C)C.[Cl-]` (stereo not drawn) [Acetyl-beta-methylcholine chloride] the “Z Score” value [8] was −0.3382, the Z score [5] was −0.338 and the Activity [1] was “no”.
In the case of `CN1[C@@H](CC(=O)c2ccccc2)CCC[C@H]1C[C@H](O)c1ccccc1` [alpha-Lobeline hydrochloride], the “Z Score” value [11] is reported as 0.5499, the Z score [6] is reported as 0.550 and the Activity [3] is reported as “no”.
For (−)-Naproxen sodium, the “Z Score” value [11] was 0.6024, the Z score [6] was 0.602 and the Activity [9] was “no”.
With `COc1ccc2c(c1)c(CC(=O)O)c(C)n2Cc1ccc(Cl)cc1` [1-(4-Chlorobenzyl)-5-methoxy-2-methylindole-3-acetic acid] the “Z Score” value [4] was −1.584, the Z score [5] was −1.584 and the Activity [1] was “no”.
`CC(C)NCC(O)COc1ccc(CCOCC2CC2)cc1` (stereo not drawn) [Betaxolol hydrochloride] was tested, and the “Z Score” value [11] was 0.9838, the Z score [2] was 0.984 and the Activity [3] was “no”.
In the case of `O=C(Nc1ccc([N+](=O)[O-])cc1Cl)c1cc(Cl)ccc1O` [Niclosamide], the “Z Score” value [4] is reported as −2.784, the Z score [6] is reported as −2.784 and the Activity [7] is reported as “yes”.
In the case of `O=C(CCCN1CC=C(n2c(=O)[nH]c3ccccc32)CC1)c1ccc(F)cc1` [Droperidol], the Activity is reported as “no”, the “Z Score” value [11] is reported as 0.6447 and the Z score [2] is reported as 0.645.
In the case of `CCC(=O)N1CCN(C(=O)c2ccccc2)CC1` [DM 235], the “Z Score” value is reported as −2.019, the Z score [2] is reported as −2.019 and the Activity [3] is reported as “no”.
For `Cc1cn[nH]c1.Cl` [4-Methylpyrazole hydrochloride], the “Z Score” value was 1.042, the Z score [6] was 1.042 and the Activity [9] was “no”.
In the case of `CN(C)C(N)=NCCC[C@H](N)C(=O)O.Cl`, the “Z Score” value is reported as −1.373.
For `CCN(CC)CCCCCCCCOC(=O)c1cc(OC)c(OC)c(OC)c1.Cl` [TMB-8 hydrochloride], the “Z Score” value was 1.707, the Z score [6] was 1.707 and the Activity [9] was “no”.
In the case of `CC(=O)Oc1cc(C(C)C)c(OCCN(C)C)cc1C` [Moxisylyte hydrochloride], the “Z Score” value [8] is reported as −1.018, the Z score [6] is reported as −1.018 and the Activity [9] is reported as “no”.
For `CC(=O)[C@H]1CC[C@H]2[C@@H]3CC=C4C[C@@H](OS(=O)(=O)[O-])CC[C@]4(C)[C@H]3CC[C@]12C.[Na+]` [Pregnenolone sulfate sodium], the “Z Score” value (LOPAC library screen at 3 μM, MTT, secondary neurosphere cultures, screened in singlets) was 2.653, the Z score [6] was 2.653 and the Activity [10] was “no”.
In the case of `Cc1cn([C@H]2C=C[C@@H](CO)O2)c(=O)[nH]c1=O` [2′,3′-didehydro-3′-deoxythymidine], the “Z Score” value [4] is reported as −1.878, the Z score [2] is reported as −1.878 and the Activity [3] is reported as “no”.
